# Laboratory results published in the supplement of paper PMC4862054.
# Legend:
# Conditions in all cases: incubation time: 72 h
# HCC1937 [1] = assay: drug sensitivity score (DSS), CellTox Green (DSS (AUC-based score)); higher = stronger drug effect (viability inhibition or cytotoxicity); extreme values may be limits of the assay
# Method in brief: (§1)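 The drug sensitivity score was computed from the area under the fitted dose-response curve. Breast cancer cell lines in 20 µl suspension went into 384-well plates holding compound at 5 concentrations (10-fold steps over a 10,000-fold, compound-specific range) for 72 h of incubation. CellTox Green fluorescence (485/520 nm) was read before CellTiter-Glo luminescence, the latter after 10 min at room temperature, and each plate was normalised to 0.1 % DMSO and a positive kill control.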
# Hs578T [2] = assay: as above
# Method in brief: as §1
# MDA-MB-231 [3] = assay: normalised viability (% of control), CellTiter-Blue; higher = more viable cells (about 100 = DMSO control)
# Method in brief: (§2)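 Compound dissolved in 5 µl medium was pre-loaded into 384-well plates, and breast cancer cell lines in 20 µl suspension were seeded on top and incubated 72 h. After adding 2.5 µl CellTiter-Blue reagent for 2 h at 37 °C, fluorescence was read at 560/590 nm. Plates were normalised to vehicle (100) and a positive kill control (0), with Z'-factor quality control. Each value is normalised viability at a single listed concentration from the series.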
# BT-549 [4] = assay: as above
# Method in brief: as §2
# CAL-148 [5] = assay: as above
# Method in brief: as §2
# MDA-MB-468 [6] = assay: as above
# Method in brief: as §2
# HCC1143 [7] = assay: as above
# Method in brief: as §2
# Hs578T [8] = assay: as above
# Method in brief: as §2
# DU-4475 [9] = assay: as above
# Method in brief: as §2
# HCC1599 [10] = assay: as above
# Method in brief: as §2
# CAL-51 [11] = assay: as above
# Method in brief: as §2
# MDA-MB-231 [12] = assay: normalised viability (% of control), CellTiter-Blue; higher = more viable cells (about 100 = DMSO control); remark: listed apart in the source
# Procedure: (§3)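 DSRT, CellTiter-Blue viability, 72 h incubation. Signal is normalised to DMSO and benzethonium chloride controls. Value is the normalised response at dose 3.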
# MDA-MB-453 = assay: as above
# Procedure: as §3
# BT-549 [13] = assay: as above; remark: listed apart in the source
# Procedure: as §3
# SK-BR-3 = assay: as above
# Procedure: as §3
# HDQ-P1 = assay: as above
# Procedure: as §3
# BT-474 = assay: as above
# Procedure: as §3
# MFM-223 = assay: as above
# Procedure: as §3
# CAL-85-1 = assay: as above
# Procedure: as §3
# CAL-148 [14] = assay: as above; remark: listed apart in the source
# Procedure: as §3
# MDA-MB-468 [15] = assay: as above; remark: listed apart in the source
# Procedure: as §3
# HCC1937 [16] = assay: as above
# Procedure: as §3
# HCC1143 [17] = assay: as above; remark: listed apart in the source
# Procedure: as §3
# Hs578T [18] = assay: as above; remark: listed apart in the source
# Procedure: as §3
# DU-4475 [19] = assay: as above; remark: listed apart in the source
# Procedure: as §3
# HCC1599 [20] = assay: as above; remark: listed apart in the source
# Procedure: as §3
# MDA-MB-436 = assay: as above
# Procedure: as §3
# CAL-51 [21] = assay: as above; remark: listed apart in the source
# Procedure: as §3
# CAL-120 = assay: as above
# Procedure: as §3
smiles,measurement,setting,value
COC(=O)C[C@](O)(CCCC(C)(C)O)C(=O)O[C@@H]1C(OC)=C[C@]23CCCN2CCc2cc4c(cc2[C@H]13)OCO4 [Omacetaxine],drug sensitivity score,HCC1937 [1],0
same,drug sensitivity score,Hs578T [2],17.1
COc1cc(Nc2ncc(F)c(Nc3ccc4c(n3)NC(=O)C(C)(C)O4)n2)cc(OC)c1OC [R406],normalised viability,MDA-MB-231 [3]; 10 nM,95.7%
same,normalised viability,MDA-MB-231 [3]; 1000 nM,77.2%
same,normalised viability,MDA-MB-231 [3]; 10000 nM,52.5%
same,normalised viability,BT-549 [4]; 10 nM,89.7%
same,normalised viability,BT-549 [4]; 1000 nM,77.3%
same,normalised viability,BT-549 [4]; 10000 nM,53%
same,normalised viability,CAL-148 [5]; 3 nM,95.3%
same,normalised viability,CAL-148 [5]; 30 nM,100%
same,normalised viability,CAL-148 [5]; 100 nM,97.7%
same,normalised viability,MDA-MB-468 [6]; 10 nM,104%
same,normalised viability,MDA-MB-468 [6]; 1000 nM,87.3%
same,normalised viability,MDA-MB-468 [6]; 10000 nM,101%
same,normalised viability,HCC1143 [7]; 10 nM,81.2%
same,normalised viability,HCC1143 [7]; 1000 nM,83.5%
same,normalised viability,HCC1143 [7]; 10000 nM,84.4%
same,normalised viability,Hs578T [8]; 10 nM,115%
same,normalised viability,Hs578T [8]; 1000 nM,105%
same,normalised viability,Hs578T [8]; 10000 nM,88.4%
same,normalised viability,DU-4475 [9]; 3 nM,96.4%
same,normalised viability,DU-4475 [9]; 30 nM,85.1%
same,normalised viability,DU-4475 [9]; 100 nM,91.5%
same,normalised viability,HCC1599 [10]; 10 nM,105%
same,normalised viability,HCC1599 [10]; 1000 nM,112%
same,normalised viability,HCC1599 [10]; 10000 nM,104%
same,normalised viability,CAL-51 [11]; 3 nM,107%
same,normalised viability,CAL-51 [11]; 30 nM,107%
same,normalised viability,CAL-51 [11]; 100 nM,107%
same,normalised viability,MDA-MB-231 [12]; 100 nM,102%
same,normalised viability,MDA-MB-453; 10 nM,106%
same,normalised viability,BT-549 [13]; 100 nM,105%
same,normalised viability,SK-BR-3; 100 nM,95.7%
same,normalised viability,HDQ-P1; 10 nM,107%
same,normalised viability,BT-474; 100 nM,116%
same,normalised viability,MFM-223; 100 nM,96.4%
same,normalised viability,CAL-85-1; 10 nM,90.2%
same,normalised viability,CAL-148 [14]; 10 nM,91.2%
same,normalised viability,MDA-MB-468 [15]; 100 nM,92.3%
same,normalised viability,HCC1937 [16]; 100 nM,125%
same,normalised viability,HCC1143 [17]; 100 nM,84.4%
same,normalised viability,Hs578T [18]; 100 nM,112%
same,normalised viability,DU-4475 [19]; 10 nM,122%
same,normalised viability,HCC1599 [20]; 100 nM,102%
same,normalised viability,MDA-MB-436; 100 nM,96.1%
same,normalised viability,CAL-51 [21]; 10 nM,107%
same,normalised viability,CAL-120; 100 nM,90.8%
Cn1c(=O)c(F)c(Nc2ccc(I)cc2F)c2c(=O)n(C[C@@H](O)CO)cnc21 [TAK-733],normalised viability,MDA-MB-231 [3]; 1 nM,89.2%
same,normalised viability,MDA-MB-231 [3]; 100 nM,36.1%
same,normalised viability,MDA-MB-231 [3]; 1000 nM,33.8%
same,normalised viability,BT-549 [4]; 1 nM,92%
same,normalised viability,BT-549 [4]; 100 nM,81.8%
same,normalised viability,BT-549 [4]; 1000 nM,103%
same,normalised viability,CAL-148 [5]; 0.3 nM,95%
same,normalised viability,CAL-148 [5]; 3 nM,99.5%
same,normalised viability,CAL-148 [5]; 10 nM,99.5%
same,normalised viability,MDA-MB-468 [6]; 1 nM,99.4%
same,normalised viability,MDA-MB-468 [6]; 100 nM,84.6%
same,normalised viability,MDA-MB-468 [6]; 1000 nM,95%
same,normalised viability,HCC1143 [7]; 1 nM,94.1%
same,normalised viability,HCC1143 [7]; 100 nM,68.6%
same,normalised viability,HCC1143 [7]; 1000 nM,56.4%
same,normalised viability,Hs578T [8]; 1 nM,108%
same,normalised viability,Hs578T [8]; 100 nM,88.3%
same,normalised viability,Hs578T [8]; 1000 nM,77.5%
same,normalised viability,DU-4475 [9]; 0.3 nM,84.7%
same,normalised viability,DU-4475 [9]; 3 nM,56.7%
same,normalised viability,DU-4475 [9]; 10 nM,15.3%
same,normalised viability,HCC1599 [10]; 1 nM,94.8%
same,normalised viability,HCC1599 [10]; 100 nM,74.6%
same,normalised viability,HCC1599 [10]; 1000 nM,70.5%
same,normalised viability,CAL-51 [11]; 0.3 nM,107%
same,normalised viability,CAL-51 [11]; 3 nM,88.7%
same,normalised viability,CAL-51 [11]; 10 nM,90.1%
same,normalised viability,MDA-MB-231 [12]; 10 nM,54.9%
same,normalised viability,MDA-MB-453; 1 nM,123%
same,normalised viability,BT-549 [13]; 10 nM,97.4%
same,normalised viability,SK-BR-3; 10 nM,99.4%
same,normalised viability,HDQ-P1; 1 nM,118%
same,normalised viability,BT-474; 10 nM,123%
same,normalised viability,MFM-223; 10 nM,80.3%
same,normalised viability,CAL-85-1; 1 nM,107%
same,normalised viability,CAL-148 [14]; 1 nM,92.6%
same,normalised viability,MDA-MB-468 [15]; 10 nM,91.5%
same,normalised viability,HCC1937 [16]; 10 nM,100%
same,normalised viability,HCC1143 [17]; 10 nM,77%
same,normalised viability,Hs578T [18]; 10 nM,86.8%
same,normalised viability,DU-4475 [19]; 1 nM,98%
same,normalised viability,HCC1599 [20]; 10 nM,86.2%
same,normalised viability,MDA-MB-436; 10 nM,100%
same,normalised viability,CAL-51 [21]; 1 nM,103%
same,normalised viability,CAL-120; 10 nM,92.7%
same,drug sensitivity score,HCC1937 [1],0
Cc1cc(C(C)Nc2ccccc2)c2nc(N3CCOCC3)cc(=O)n2c1 (stereo not given) [TGX-221],drug sensitivity score,HCC1937 [1],0
COc1cc(Nc2ncc(F)c(Nc3ccc4c(n3)NC(=O)C(C)(C)O4)n2)cc(OC)c1OC [Tamatinib],drug sensitivity score,HCC1937 [1],0
same,drug sensitivity score,Hs578T [2],0
c1ccc(C2CN3CCSC3=N2)cc1 (stereo not given) [Tetramisole],normalised viability,MDA-MB-231 [3]; 10 nM,96.5%
same,normalised viability,MDA-MB-231 [3]; 1000 nM,91.7%
same,normalised viability,MDA-MB-231 [3]; 10000 nM,104%
same,normalised viability,BT-549 [4]; 10 nM,105%
same,normalised viability,BT-549 [4]; 1000 nM,85.6%
same,normalised viability,BT-549 [4]; 10000 nM,89.1%
same,normalised viability,CAL-148 [5]; 3 nM,103%
same,normalised viability,CAL-148 [5]; 30 nM,103%
same,normalised viability,CAL-148 [5]; 100 nM,125%
same,normalised viability,MDA-MB-468 [6]; 10 nM,101%
same,normalised viability,MDA-MB-468 [6]; 1000 nM,106%
same,normalised viability,MDA-MB-468 [6]; 10000 nM,120%
same,normalised viability,HCC1143 [7]; 10 nM,105%
same,normalised viability,HCC1143 [7]; 1000 nM,118%
same,normalised viability,HCC1143 [7]; 10000 nM,109%
same,normalised viability,Hs578T [8]; 10 nM,90.2%
same,normalised viability,Hs578T [8]; 1000 nM,95.5%
same,normalised viability,Hs578T [8]; 10000 nM,107%
same,normalised viability,DU-4475 [9]; 3 nM,91.1%
same,normalised viability,DU-4475 [9]; 30 nM,99.9%
same,normalised viability,DU-4475 [9]; 100 nM,101%
same,normalised viability,HCC1599 [10]; 10 nM,102%
same,normalised viability,HCC1599 [10]; 1000 nM,91.2%
same,normalised viability,HCC1599 [10]; 10000 nM,107%
same,normalised viability,CAL-51 [11]; 3 nM,85.4%
same,normalised viability,CAL-51 [11]; 30 nM,92.1%
same,normalised viability,CAL-51 [11]; 100 nM,89.6%
same,normalised viability,MDA-MB-231 [12]; 100 nM,101%
same,normalised viability,MDA-MB-453; 10 nM,98.1%
same,normalised viability,BT-549 [13]; 100 nM,83%
same,normalised viability,SK-BR-3; 100 nM,104%
same,normalised viability,HDQ-P1; 10 nM,122%
same,normalised viability,BT-474; 100 nM,109%
same,normalised viability,MFM-223; 100 nM,92.3%
same,normalised viability,CAL-85-1; 10 nM,103%
same,normalised viability,CAL-148 [14]; 10 nM,114%
same,normalised viability,MDA-MB-468 [15]; 100 nM,98.8%
same,normalised viability,HCC1937 [16]; 100 nM,108%
same,normalised viability,HCC1143 [17]; 100 nM,116%
same,normalised viability,Hs578T [18]; 100 nM,97.5%
same,normalised viability,DU-4475 [19]; 10 nM,87.6%
same,normalised viability,HCC1599 [20]; 100 nM,107%
same,normalised viability,MDA-MB-436; 100 nM,108%
same,normalised viability,CAL-51 [21]; 10 nM,95.2%
same,normalised viability,CAL-120; 100 nM,120%
C[C@@H]1CCN(C(=O)CC#N)C[C@@H]1N(C)c1ncnc2[nH]ccc12 [Tofacitinib],drug sensitivity score,HCC1937 [1],0
same,drug sensitivity score,Hs578T [2],0
FC(F)c1nc2ccccc2n1-c1nc(N2CCOCC2)nc(N2CCOCC2)n1 [ZSTK474],drug sensitivity score,HCC1937 [1],0
same,drug sensitivity score,Hs578T [2],0
